Source: PubChem BioAssay (NCI)
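Where inhibition never reached the appropriate level, the endpoint shown equals the highest concentration tested. Otherwise, values were interpolated linearly from a five-concentration, 48-hour dose response in 96-well plates. Here, GI50 denotes the concentration required for 50% inhibition of growth. TGI: concentration producing complete growth inhibition.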

Experiments:
Test in all cases: NCI-60 cell line screen, 48 h
786-0 renal = test system: 786-0 renal
A498 renal = test system: A498 renal
A549 NSCLC = test system: A549 NSCLC
ACHN renal = test system: ACHN renal
BT-549 breast = test system: BT-549 breast
CAKI-1 renal = test system: CAKI-1 renal
COLO 205 colon = test system: COLO 205 colon
DU-145 prostate = test system: DU-145 prostate
EKVX NSCLC = test system: EKVX NSCLC
HCC-2998 colon = test system: HCC-2998 colon
HCT-116 colon = test system: HCT-116 colon
HCT-15 colon = test system: HCT-15 colon
HL-60(TB) leukemia = test system: HL-60(TB) leukemia
HOP-62 NSCLC = test system: HOP-62 NSCLC
HOP-92 NSCLC = test system: HOP-92 NSCLC
HS 578T breast = test system: HS 578T breast
HT29 colon = test system: HT29 colon
IGROV1 ovarian = test system: IGROV1 ovarian
K-562 leukemia = test system: K-562 leukemia
KM12 colon = test system: KM12 colon
M14 melanoma = test system: M14 melanoma
MALME-3M melanoma = test system: MALME-3M melanoma
MCF7 breast = test system: MCF7 breast
MDA-MB-231 breast = test system: MDA-MB-231 breast
MDA-MB-435 = test system: MDA-MB-435
MOLT-4 leukemia = test system: MOLT-4 leukemia
NCI-H226 lung = test system: NCI-H226 lung
NCI-H23 lung = test system: NCI-H23 lung
NCI-H460 lung = test system: NCI-H460 lung
NCI-H522 lung = test system: NCI-H522 lung
NCI/ADR-RES ovarian = test system: NCI/ADR-RES ovarian
OVCAR-3 ovarian = test system: OVCAR-3 ovarian
OVCAR-4 ovarian = test system: OVCAR-4 ovarian
OVCAR-5 ovarian = test system: OVCAR-5 ovarian
OVCAR-8 ovarian = test system: OVCAR-8 ovarian
PC-3 prostate = test system: PC-3 prostate
RPMI-8226 leukemia = test system: RPMI-8226 leukemia
RXF 393 renal = test system: RXF 393 renal
SF-268 CNS = test system: SF-268 CNS
SF-295 CNS = test system: SF-295 CNS
SF-539 CNS = test system: SF-539 CNS
SK-MEL-2 melanoma = test system: SK-MEL-2 melanoma
SK-MEL-28 melanoma = test system: SK-MEL-28 melanoma
SK-MEL-5 melanoma = test system: SK-MEL-5 melanoma
SK-OV-3 ovarian = test system: SK-OV-3 ovarian
SN12C renal = test system: SN12C renal
SNB-19 CNS = test system: SNB-19 CNS
SNB-75 CNS = test system: SNB-75 CNS
SR leukemia = test system: SR leukemia
SW-620 colon = test system: SW-620 colon
T-47D breast = test system: T-47D breast
TK-10 renal = test system: TK-10 renal
U251 CNS = test system: U251 CNS
UACC-257 melanoma = test system: UACC-257 melanoma
UACC-62 melanoma = test system: UACC-62 melanoma
UO-31 renal = test system: UO-31 renal

C#Cc1cc(OC)c(C(=O)Nc2ccc(F)cc2C(=O)Nc2cccc(S(=O)(=O)C(F)(F)F)c2)cn1
GI50 (786-0 renal): 24.1 nM | TGI (786-0 renal): 63.3 nM | GI50 (A498 renal): 250 nM | TGI (A498 renal): 656 nM | GI50 (A549 NSCLC): 1060 nM | TGI (A549 NSCLC): 5200 nM | GI50 (ACHN renal): 205 nM | TGI (ACHN renal): 1670 nM | GI50 (BT-549 breast): 500 nM | TGI (BT-549 breast): 1850 nM | GI50 (CAKI-1 renal): 149 nM | TGI (CAKI-1 renal): 884 nM | GI50 (COLO 205 colon): 1680 nM | TGI (COLO 205 colon): > 42700 nM | GI50 (DU-145 prostate): 3250 nM | TGI (DU-145 prostate): > 100000 nM | GI50 (EKVX NSCLC): 290 nM | TGI (EKVX NSCLC): 1100 nM | GI50 (HCC-2998 colon): 2100 nM | TGI (HCC-2998 colon): 4640 nM | GI50 (HCT-116 colon): 417 nM | TGI (HCT-116 colon): > 100000 nM | GI50 (HCT-15 colon): 629 nM | TGI (HCT-15 colon): 2680 nM | GI50 (HL-60(TB) leukemia): 28.9 nM | TGI (HL-60(TB) leukemia): 84.5 nM | GI50 (HOP-62 NSCLC): 38.1 nM | TGI (HOP-62 NSCLC): 212 nM | GI50 (HOP-92 NSCLC): 20.1 nM | TGI (HOP-92 NSCLC): 53.9 nM | GI50 (HS 578T breast): 525 nM | TGI (HS 578T breast): 3140 nM | GI50 (HT29 colon): 447 nM | TGI (HT29 colon): 2500 nM | GI50 (IGROV1 ovarian): 20.8 nM | TGI (IGROV1 ovarian): 51.2 nM | GI50 (K-562 leukemia): 666 nM | TGI (K-562 leukemia): > 100000 nM | GI50 (KM12 colon): 299 nM | TGI (KM12 colon): 1540 nM | GI50 (M14 melanoma): 1270 nM | TGI (M14 melanoma): > 28400 nM | GI50 (MALME-3M melanoma): 43.3 nM | TGI (MALME-3M melanoma): 130 nM | GI50 (MCF7 breast): 727 nM | TGI (MCF7 breast): > 100000 nM | GI50 (MDA-MB-231 breast): 117 nM | TGI (MDA-MB-231 breast): 596 nM | GI50 (MDA-MB-435): 1750 nM | TGI (MDA-MB-435): > 23800 nM | GI50 (MOLT-4 leukemia): 322 nM | TGI (MOLT-4 leukemia): 1350 nM | GI50 (NCI-H226 lung): 1720 nM | TGI (NCI-H226 lung): 8900 nM | GI50 (NCI-H23 lung): 101 nM | TGI (NCI-H23 lung): 559 nM | GI50 (NCI-H460 lung): 419 nM | TGI (NCI-H460 lung): 1690 nM | GI50 (NCI-H522 lung): 60.6 nM | TGI (NCI-H522 lung): 237 nM | GI50 (NCI/ADR-RES ovarian): 52.1 nM | TGI (NCI/ADR-RES ovarian): 340 nM | GI50 (OVCAR-3 ovarian): 224 nM | TGI (OVCAR-3 ovarian): 576 nM | GI50 (OVCAR-4 ovarian): 1980 nM | TGI (OVCAR-4 ovarian): > 26600 nM | GI50 (OVCAR-5 ovarian): 269 nM | TGI (OVCAR-5 ovarian): 1800 nM | GI50 (OVCAR-8 ovarian): 389 nM | TGI (OVCAR-8 ovarian): 4430 nM | GI50 (PC-3 prostate): 1520 nM | TGI (PC-3 prostate): 14500 nM | GI50 (RPMI-8226 leukemia): 174 nM | TGI (RPMI-8226 leukemia): 550 nM | GI50 (RXF 393 renal): 337 nM | TGI (RXF 393 renal): 1190 nM | GI50 (SF-268 CNS): 285 nM | TGI (SF-268 CNS): 927 nM | GI50 (SF-295 CNS): 176 nM | TGI (SF-295 CNS): 333 nM | GI50 (SF-539 CNS): 99.9 nM | TGI (SF-539 CNS): 252 nM | GI50 (SK-MEL-2 melanoma): 2870 nM | TGI (SK-MEL-2 melanoma): 10600 nM | GI50 (SK-MEL-28 melanoma): 2840 nM | TGI (SK-MEL-28 melanoma): > 25800 nM | GI50 (SK-MEL-5 melanoma): 1240 nM | TGI (SK-MEL-5 melanoma): 2880 nM | GI50 (SK-OV-3 ovarian): 205 nM | TGI (SK-OV-3 ovarian): 412 nM | GI50 (SN12C renal): 542 nM | TGI (SN12C renal): > 36700 nM | GI50 (SNB-19 CNS): 1590 nM | TGI (SNB-19 CNS): 3550 nM | GI50 (SNB-75 CNS): 190 nM | TGI (SNB-75 CNS): 529 nM | GI50 (SR leukemia): 21.6 nM | TGI (SR leukemia): 68.9 nM | GI50 (SW-620 colon): 1130 nM | TGI (SW-620 colon): 3420 nM | GI50 (T-47D breast): 1730 nM | TGI (T-47D breast): 4300 nM | GI50 (TK-10 renal): 5860 nM | TGI (TK-10 renal): > 100000 nM | GI50 (U251 CNS): 280 nM | TGI (U251 CNS): 840 nM | GI50 (UACC-257 melanoma): 3030 nM | TGI (UACC-257 melanoma): > 83600 nM | GI50 (UACC-62 melanoma): 778 nM | TGI (UACC-62 melanoma): 2310 nM | GI50 (UO-31 renal): 17.5 nM | TGI (UO-31 renal): 44.9 nM
